Reference: patent US8815891B2, “Tricyclic derivative or pharmaceutically acceptable salts thereof, preparation method thereof, and pharmaceutical composition containing the same” (Je Il Pharmaceutical Co., Ltd., priority 2008, dated 2014)
Counter-ions that a name gives are not always drawn.

Tests used:
[1] = system: SK-OV-3 Cell line; assay: Cell growth inhibition of cancer cell lines (SRB assay), SK-OV-3; assay type: cell-based
Protocol: (§1) The tests on cell growth inhibitory activity were performed with respect to A549 (US, ATCC), SK-OV-3 (Korea Research Institute of Chemical Technology; KRICT), HT-29 (US, ATCC), MCF-7 cell (US, ATCC), using Sulforhodamin-B <SRB> Assay (1989, US National Cancer Institute (NCI)) which was developed to measure the in vitro anti-cancer activity of the drug. […] The samples of the compounds of the Examples according to the present invention were used for the tests, and before the tests, the samples were dissolved in dimethylsulfoxide and diluted with the culture medium (RPMI 1640) to be used. The final concentration of the sample was varied in the range of 0.3˜100 μM. After the culture medium was removed from the 96 well plates, the diluted sample solution was added by 100 μl, and cultured in 37° C., 5% CO2 culture medium for 72 hours. The time zero (Tz) plates were collected at the time point of adding the sample. Upon completing the culture, the medium was removed from each well along with Tz plate, then cold 10% trichloroacetic acid (TCA) was added by 100 μl per well. The wells were left at 4° C. for 1 hour, so that the cells were fixed into the bottom of the plates. After the cells were fixed, the plates were rinsed with water five to six times to remove the remaining trichloroacetic acid solution, and moisture was completely dried at room temperature. The cells were dyed for 30 minutes by adding the dye solution in which 0.4% sulforhodamine-B was dissolved in 1% acetic acid solution, by 100 μl per dried wells. The above was rinsed again with 1% acetic acid solution five to six times to ensure that sulforhodamine-B which had not attached to the cells was removed. The plates were again dried at room temperature. 100 μl of 10 mM tris-buffer was then added to dissolve the dye, and the optical density (OD) at 520 nm was measured with the microplate reader. GI50 of the sample regarding cancer cell was calculated as explained below. Time zero (Tz), control value (C) and test value (T) were obtained, in which Tz corresponds to OD value of time at which the sample is applied and culture is started, C corresponds to OD value of the well which is cultured without treatment with the sample, and T corresponds to OD value of the well which is treated with the sample and then cultured. The degree of cell growth inhibition of the sample was measured using: If […] [Mathematical Formula 1]
(§2) Further, the ability of Examples 2, 42, 49, 52, 72, 74, 101 to increase growth inhibition effect of temozolomide and SN-38 at 2 μM was determined.

[2] = system: MCF-7 Cell line; assay: Cell growth inhibition of cancer cell lines (SRB assay), MCF-7; assay type: cell-based
Protocol: as §1, §2

[3] = molecular target: PARP-1 enzyme (Cricetulus griseus (Chinese hamster) (Cricetulus barabensis griseus), UniProt Q9R152); assay: Intracellular PARP inhibitory activity (NAD(P)H released by MMS-treated CHO-K1 cells); assay type: cell-based
Chain of PARP-1 enzyme (Cricetulus griseus (Chinese hamster) (Cricetulus barabensis griseus), UniProt Q9R152) (Q9R152 whole entry): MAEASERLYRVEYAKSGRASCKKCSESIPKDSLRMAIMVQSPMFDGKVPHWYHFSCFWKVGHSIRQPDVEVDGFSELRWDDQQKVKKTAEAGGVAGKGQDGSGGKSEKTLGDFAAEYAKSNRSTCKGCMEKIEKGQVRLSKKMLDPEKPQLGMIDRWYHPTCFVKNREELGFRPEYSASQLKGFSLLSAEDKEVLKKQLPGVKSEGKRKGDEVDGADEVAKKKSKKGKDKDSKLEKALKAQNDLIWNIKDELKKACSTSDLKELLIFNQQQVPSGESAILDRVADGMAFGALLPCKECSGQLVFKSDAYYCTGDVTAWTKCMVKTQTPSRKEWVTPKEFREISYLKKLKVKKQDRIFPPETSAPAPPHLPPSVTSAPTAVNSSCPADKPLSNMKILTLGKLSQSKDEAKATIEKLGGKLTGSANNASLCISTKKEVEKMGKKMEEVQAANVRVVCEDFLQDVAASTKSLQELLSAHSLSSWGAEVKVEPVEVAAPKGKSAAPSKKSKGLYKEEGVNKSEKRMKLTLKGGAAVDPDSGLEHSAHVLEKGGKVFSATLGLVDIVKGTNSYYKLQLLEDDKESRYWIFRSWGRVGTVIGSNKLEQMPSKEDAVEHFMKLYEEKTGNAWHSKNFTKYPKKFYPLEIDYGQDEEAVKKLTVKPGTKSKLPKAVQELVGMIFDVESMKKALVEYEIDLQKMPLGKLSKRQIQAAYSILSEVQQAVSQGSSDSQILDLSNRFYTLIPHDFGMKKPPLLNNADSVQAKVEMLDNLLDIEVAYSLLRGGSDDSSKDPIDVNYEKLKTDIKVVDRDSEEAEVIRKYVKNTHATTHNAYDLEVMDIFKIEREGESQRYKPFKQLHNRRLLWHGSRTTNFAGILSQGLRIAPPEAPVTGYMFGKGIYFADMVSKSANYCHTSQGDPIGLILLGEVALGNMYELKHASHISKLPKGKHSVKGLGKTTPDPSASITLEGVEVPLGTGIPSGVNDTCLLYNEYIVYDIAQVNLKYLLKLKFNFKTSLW

[4] = molecular target: PARP-1 enzyme (Homo sapiens (Human), UniProt P09874); assay: Poly(ADP-ribose)polymerase [PARP-1] enzyme inhibitory activity (Trevigen PARP Assay kit); assay type: biochemical; conditions: read-out: PARP-1 Inhibitory activity IC50
Chain of PARP-1 enzyme (Homo sapiens (Human), UniProt P09874) (P09874 whole entry): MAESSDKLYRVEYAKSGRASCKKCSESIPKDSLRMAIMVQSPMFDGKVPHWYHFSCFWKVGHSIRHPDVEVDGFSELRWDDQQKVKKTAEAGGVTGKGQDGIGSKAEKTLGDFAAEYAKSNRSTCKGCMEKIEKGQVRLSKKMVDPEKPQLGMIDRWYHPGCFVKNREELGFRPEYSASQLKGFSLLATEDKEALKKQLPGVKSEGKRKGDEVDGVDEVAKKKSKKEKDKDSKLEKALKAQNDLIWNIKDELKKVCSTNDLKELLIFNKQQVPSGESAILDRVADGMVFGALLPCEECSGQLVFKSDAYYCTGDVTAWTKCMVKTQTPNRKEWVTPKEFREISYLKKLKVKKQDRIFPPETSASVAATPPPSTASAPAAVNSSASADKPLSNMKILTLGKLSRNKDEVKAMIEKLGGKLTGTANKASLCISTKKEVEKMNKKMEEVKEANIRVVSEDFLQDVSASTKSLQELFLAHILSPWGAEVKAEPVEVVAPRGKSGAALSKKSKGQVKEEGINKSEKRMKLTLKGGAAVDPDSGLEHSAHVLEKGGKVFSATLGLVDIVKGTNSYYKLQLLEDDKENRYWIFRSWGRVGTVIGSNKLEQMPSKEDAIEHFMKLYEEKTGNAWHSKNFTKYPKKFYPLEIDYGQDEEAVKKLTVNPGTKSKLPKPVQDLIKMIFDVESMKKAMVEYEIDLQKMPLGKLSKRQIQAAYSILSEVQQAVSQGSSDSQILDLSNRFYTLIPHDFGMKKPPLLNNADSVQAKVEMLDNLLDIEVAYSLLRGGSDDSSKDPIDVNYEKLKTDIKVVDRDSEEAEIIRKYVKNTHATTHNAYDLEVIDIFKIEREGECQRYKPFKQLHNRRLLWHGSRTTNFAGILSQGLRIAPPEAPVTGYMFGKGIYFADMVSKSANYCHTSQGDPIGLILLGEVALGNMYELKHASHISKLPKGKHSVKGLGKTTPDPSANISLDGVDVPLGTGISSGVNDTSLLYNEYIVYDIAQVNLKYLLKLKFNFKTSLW
Procedure, shortened: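 On histone-coated plates, PARP-1 (0.12 unit/well) reacted with compound for 30 min at 25 °C in a 2× cocktail of 1.95 mM NAD+, 50 μM biotinylated NAD+ and activated DNA (Tris pH 8.0, 25 mM MgCl2). Biotin-ribosylated histone was detected with streptavidin-HRP and TACS-Sapphire substrate, stopped with HCl and read at 450 nm.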

[5] = system: A549 cell line; assay: Cell growth inhibition of cancer cell lines (SRB assay), A549; assay type: cell-based
Protocol: as §1, §2

COc1cc(CN2CCOCC2)cc2[nH]c(=O)c3c(c12)NCCC3 [Example 74, 10-Methoxy-8-(morpholinomethyl)-1,2,3,4-tetrahydrobenzo[h][1,6]naphthyridine-5(6H)-one dihydrochloride]
SN-38 PF50 ([1]; 2 μM compound): 2.2 | Temozolomide PF50 ([1]; 2 μM compound): >5.0 | GI50 ([1]; Homo sapiens, 72 hours): 52 µM | SN-38 PF50 ([2]; 2 μM compound): 3.0 | Temozolomide PF50 ([2]; 2 μM compound): 6.3 | GI50 ([2]; Homo sapiens, MCF7, 72 hours): 45 µM | IC50 [3]: 1480 nM | IC50 [4]: 230 nM | SN-38 PF50 ([5]; 2 μM compound, GI50 SN-38 alone / GI50 with compound): 2.2 | Temozolomide PF50 ([5]; 2 μM compound, GI50 temozolomide alone / GI50 with compound): 3.2 | GI50 ([5]; Homo sapiens, 72 hours): 75 µM
